IC50 data for five compounds are collected here from ChEMBL document CHEMBL4813927, “Discovery of Venturicidin Congeners and Identification of the Biosynthetic Gene Cluster from Streptomyces sp. NRRL S-4” (J Nat Prod, 2021).

In test [1] the test system is MV4-11. Description: Cytotoxicity against human MV4-11 cells assessed as inhibition of cell growth measured after 72 hrs by Celltiter-Glo assay. It is filed as functional, cell-based. Conditions: MV4-11, 72 h. On the technique in general: Cellular ATP, detected with luciferase, serves as a proxy for viable cell number.
The subject of test [2] is K562. Description: Cytotoxicity against human K562 cells assessed as inhibition of cell growth measured after 72 hrs by Celltiter-Glo assay. The conditions noted are these: K562, 72 h. The class given is functional, cell-based.
Test [3] relates to MDA-MB-468. Description: Cytotoxicity against human MDA-MB-468 cells assessed as inhibition of cell growth measured after 72 hrs by Celltiter-Glo assay. It is filed as functional, cell-based. Conditions: MDA-MB-468, 72 h.
Test [4] relates to B16. Nature of the test: Cytotoxicity against mouse B16 cells assessed as inhibition of cell growth measured after 72 hrs by Celltiter-Glo assay. Conditions: B16, 72 h. It is filed as functional, cell-based.
Test [5] concerns Hep 3B2. Description: Cytotoxicity against human Hep3B cells assessed as inhibition of cell growth measured after 72 hrs by Celltiter-Glo assay. The class given is functional, cell-based.
Test [6] has as its target T1, Receptor-type tyrosine-protein kinase FLT3 (Homo sapiens, UniProt P36888).
T1 sequence (P36888 whole entry): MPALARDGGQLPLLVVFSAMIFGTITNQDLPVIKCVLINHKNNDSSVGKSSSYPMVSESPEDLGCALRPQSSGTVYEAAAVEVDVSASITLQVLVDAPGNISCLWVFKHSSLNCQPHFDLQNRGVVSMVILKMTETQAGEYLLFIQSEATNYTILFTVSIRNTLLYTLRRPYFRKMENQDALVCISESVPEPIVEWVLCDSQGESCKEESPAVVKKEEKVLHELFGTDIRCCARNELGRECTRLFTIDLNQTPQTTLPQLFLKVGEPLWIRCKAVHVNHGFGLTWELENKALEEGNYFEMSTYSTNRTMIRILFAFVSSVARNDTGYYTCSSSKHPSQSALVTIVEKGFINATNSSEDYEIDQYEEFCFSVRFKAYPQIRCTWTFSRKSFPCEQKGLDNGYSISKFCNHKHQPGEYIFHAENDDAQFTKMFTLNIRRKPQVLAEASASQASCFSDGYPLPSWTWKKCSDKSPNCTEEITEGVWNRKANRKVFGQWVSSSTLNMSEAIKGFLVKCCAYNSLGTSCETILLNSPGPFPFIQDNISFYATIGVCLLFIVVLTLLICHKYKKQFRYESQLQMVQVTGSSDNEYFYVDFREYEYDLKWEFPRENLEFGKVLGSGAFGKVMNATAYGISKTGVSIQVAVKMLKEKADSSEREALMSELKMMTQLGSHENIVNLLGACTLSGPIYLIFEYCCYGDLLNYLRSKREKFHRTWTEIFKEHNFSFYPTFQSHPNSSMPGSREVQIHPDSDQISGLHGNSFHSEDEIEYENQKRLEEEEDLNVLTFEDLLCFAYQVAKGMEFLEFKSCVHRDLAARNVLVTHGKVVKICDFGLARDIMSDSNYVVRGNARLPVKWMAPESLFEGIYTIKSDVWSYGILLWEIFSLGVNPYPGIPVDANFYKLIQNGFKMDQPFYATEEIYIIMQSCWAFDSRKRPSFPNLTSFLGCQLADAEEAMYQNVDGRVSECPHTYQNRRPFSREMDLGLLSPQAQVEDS
Nature of the test: Inhibition of FLT3 (unknown origin) using MBP as substrate incubated for 40 mins in presence of ATP by ADP-Glo assay. In general terms: In ADP-Glo the light output rises with the ADP produced.

Structures can show the parent of a compound that is named as a salt.

Regarding `CCC(=O)[C@@H](C)[C@@H](O)[C@H](C)C[C@@H](C)[C@H]1OC(=O)C[C@@]2(OC)CC=C(C)[C@H](O2)/C(C)=C/CCC[C@@H](O[C@H]2C[C@@H](OC(N)=O)[C@H](O)[C@@H](C)O2)/C=C/[C@H](C)C[C@H]1C`, the IC50 – broadly, the concentration at which inhibition is half-maximal – in test [1] was found to be 4.1 µM.

In the case of `CCC(=O)[C@@H](C)[C@@H](O)[C@H](C)C[C@@H](C)[C@H]1OC(=O)C[C@@]2(O)CC=C(C)[C@H](O2)/C(C)=C/CCC[C@@H](O[C@H]2C[C@@H](OC(N)=O)[C@H](O)[C@@H](C)O2)/C=C/[C@H](C)C[C@H]1C`, the IC50 turned out to be 5.8 µM in test [2]; 8.3 µM in test [3]; 0.09 µM in test [1]; 12 µM in test [4]; 15 µM in test [5]; 64 µM in test [6].

With `CCC(=O)[C@@H](C)[C@H](O)[C@H](C)C[C@@H](C)[C@H]1OC(=O)C[C@@]2(O)CC=C(C)[C@H](O2)/C(C)=C/CCC[C@@H](O[C@H]2C[C@@H](OC(N)=O)[C@H](O)[C@@H](C)O2)/C=C/[C@H](C)C[C@H]1C`, the half-inhibitory concentration (IC50) in test [1] was 60 µM.

With `CCC(=O)[C@@H](C)[C@@H](O)[C@H](C)C[C@@H](C)[C@H]1OC(=O)C[C@@]2(O)CC[C@H](C)[C@H](O2)/C(C)=C/CCC[C@@H](O[C@H]2C[C@@H](OC(N)=O)[C@H](O)[C@@H](C)O2)/C=C/[C@H](C)C[C@H]1C`, the IC50 in test [1] came to 0.94 µM.

For `COc1cccc2c1C(=O)c1c(O)c3c(c(O)c1C2=O)C[C@@](O)(C(=O)CO)C[C@@H]3O[C@H]1C[C@H](N)[C@H](O)[C@H](C)O1` [DOXORUBICIN HYDROCHLORIDE], the half-maximal inhibitory concentration (IC50) in test [1] is 0.14 µM.
